# According to patent EP3048104A1, “AMORPHOUS AND CRYSTALLINE FORMS OF IDELALISIB AND PROCESS FOR FORMING THE SAME” (Sandoz AG, priority 2015, dated 2016):
# Legend:
# [1] = pressure conditions typical for tablet preparation; cited from earlier work
# [2] = Solubility at pH 6.8; type: physicochemical; conditions: pH 6.8, aqueous buffer
# Method: The solubility of Forms I and II of idelalisib is very low. At pH 6.8 a solubility of about 70 mg/L was measured.
# [3] = Compression stability (KBr pellet die, XRPD analysis); type: physicochemical; conditions: compressed for 4.5 days at 740 MPa
# Method: XRPD diffractograms were obtained with an X'Pert PRO diffractometer (PANalytical, Almelo, The Netherlands) equipped with a theta/theta coupled goniometer in transmission geometry, programmable XYZ stage with well plate holder, Cu K-alpha radiation source (wavelength 0.15418 nm) with a focusing mirror, a 0.5° divergence slit, a 0.02° soller slit collimator and a 0.5° anti-scattering slit on the incident beam side, a 2 mm anti-scattering slit, a 0.02° soller slit collimator, a Ni-filter and a solid state PIXcel detector on the diffracted beam side. The diffractogram was recorded at room temperature (25°C) at a tube voltage of 40 kV, tube current of 40 mA, applying a step size of 0.013° 2-Theta with 40 sec per step in the angular range of 2° to 40° 2-Theta. A typical precision of the 2-Theta values is in the range of ± 0.2° 2-Theta. Thus, a diffraction peak that appears for example at 9.4° 2-Theta can appear between 9.2 and 9.6° 2-theta on most X-ray diffractometers under standard conditions. 50 mg of pure amorphous idelalisib obtained as disclosed in Example 4b) were added to a KBr pellet die and compressed for 4.5 days at 740 MPa.
# [4] = Thermal and humidity stability (XRPD analysis); type: physicochemical
# Method: XRPD diffractograms were obtained with an X'Pert PRO diffractometer (PANalytical, Almelo, The Netherlands) equipped with a theta/theta coupled goniometer in transmission geometry, programmable XYZ stage with well plate holder, Cu K-alpha radiation source (wavelength 0.15418 nm) with a focusing mirror, a 0.5° divergence slit, a 0.02° soller slit collimator and a 0.5° anti-scattering slit on the incident beam side, a 2 mm anti-scattering slit, a 0.02° soller slit collimator, a Ni-filter and a solid state PIXcel detector on the diffracted beam side. The diffractogram was recorded at room temperature (25°C) at a tube voltage of 40 kV, tube current of 40 mA, applying a step size of 0.013° 2-Theta with 40 sec per step in the angular range of 2° to 40° 2-Theta. A typical precision of the 2-Theta values is in the range of ± 0.2° 2-Theta. Thus, a diffraction peak that appears for example at 9.4° 2-Theta can appear between 9.2 and 9.6° 2-theta on most X-ray diffractometers under standard conditions. 50 mg of pure amorphous idelalisib obtained as disclosed in Example 4b) were exposed to 98% relative humidity at 25°C for 5 days. […] 50 mg of pure amorphous idelalisib obtained as disclosed in Example 4b) were exposed to 75% relative humidity at 40°C for 5 days. […] 50 mg of pure amorphous idelalisib obtained as disclosed in Example 4b) were thermally stressed at 120°C and 50% relative humidity for 5 days in a sealed vial.
# [5] = Solubility in water at 25°C; type: physicochemical
solubility [2] [µg/mL],change in the amorphous phase by XRPD after compression [3],change of the amorphous form by XRPD after storage ([4]; 75% relative humidity at 40°C for 5 days),change of the amorphous form by XRPD after storage ([4]; 98% relative humidity at 25°C for 5 days),change of the amorphous form by XRPD after storage ([4]; 120°C and 50% relative humidity for 5 days in a sealed vial),solubility [5] [µg/mL],Compound,phase conversion under pressure [1]
~70,,,,,,"CC[C@H](Nc1ncnc2[nH]cnc12)c1nc2cccc(F)c2c(=O)n1-c1ccccc1 [Form I, (S)-2-(1-(9H-purin-6-ylamino)propyl)-5-fluoro-3-phenylquinazolin-4(3H)-one]",easily converts at least partially to Form II
,no change in the amorphous phase,no change of the amorphous form,no change of the amorphous form,no change of the amorphous form,~415,"CC[C@H](Nc1ncnc2[nH]cnc12)c1nc2cccc(F)c2c(=O)n1-c1ccccc1 [pure amorphous idelalisib, (S)-2-(1-(9H-purin-6-ylamino)propyl)-5-fluoro-3-phenylquinazolin-4(3H)-one]",
